In patent publication US5545648A (Canadian Spinal Research Organization, priority 1992, dated 1996):
Several values for one entry are separate records, joined by “and”; a condition that tells them apart may be missing. Equal entries are not always repeated. Entries after “also recorded” stand apart in the source; their conditions may differ.

Tests used:
[1] = system: spinal cord injured patients; assay: Neurological examination, motor and sensory score (modified ASIA standards), double-blind placebo-controlled crossover study; format: in vivo, human; set-up: key to change in sensory score, -ve / change in sensory score, +ve / change in sensory score, -ve, TOTAL: change in summed sensory points (each item graded 0-4)
Method: The experimental design was a double-blind, placebo-controlled, crossover study in which each patient was administered the drug and a vehicle control on different occasions, separated by two weeks. The order of delivery was randomized.
(§1) The schedule of each trial was the same. The patient was admitted to the hospital on the preceding day and in the early morning was assessed by neurological examination and electro-diagnostic evaluation. Administration of the drug or placebo, through an in dwelling venous catheter, was then begun and continued for approximately 2 hours, arranged in 20 minute sequences based on delivery of 1 ml aliquots of the 4-AP solution. The patient was monitored electroencephalographically at frequent intervals throughout the procedure. Samples of blood and urine were obtained from an additional intravenous catheter and from the urinary catheter respectively. Blood was obtained at intervals up to 5 hours from the beginning of drug delivery and urine obtained pre-infusion and at 1 and 2 hours after the beginning of infusion. The patients were re-evaluated by complete neurological examination, by the same examiner, at the end of the period of drug delivery. They were then re-examined with the electrodiagnostic tests. A more limited neurological examination was sometimes performed during drug delivery in an attempt to identify any early changes, without producing significant testing fatigue. The electrodiagnostic tests were repeated at 2 hours after the cessation of drug delivery. Patients showing apparent effects of the treatment remained in the hospital overnight and were examined on the following day. Subsequent contact with the patients was by telephone interview or as a result of their correspondence regarding longer term changes associated with their treatment.
Two of the patients who reported more prolonged effects of the drug were returned to the hospital after 4 months for a second, unblinded trial, which included neurological examinations daily for 3-4 days. Plasma samples were also obtained daily from these two patients, for measurement of 4-AP.
(§2) Patients were evaluated using a modified form of the American Spinal Injury Association (ASIA) Standards for Neurological Classification of Spinal Injury Patients (revised 1990). The modifications were mainly required to simplify the examination so that it could be performed on patients lying on a bed with intravenous catheters, electrodes and urethral catheters restricting the range of motion. Examinations performed after the day of drug delivery were made on an outpatient basis with the subjects partially clothed, and evaluation of dermatomes was sometimes incomplete. Each part of the examination was videotaped for later review and was repeated on the two sides of the body.
Grading of motor abilities was made on the ASIA 0-5 point scale wherever possible:
0--absent (total paralysis)
1--trace (palpable or visible contraction producing little or no movement around joint)
2--poor (active movement through much or all of the normal range of motion, with gravity eliminated--where relevant)
3--fair (active movement through full range of motion against gravity)
4--good (active movement against resistance)
The muscles examined included: deltoid, biceps, triceps, wrist extensors, wrist flexors, finger flexors and extensors (combined), hip flexors (iliopsoas), hip extensors, quadriceps, hamstrings, ankle dorsiflexors (tibiails anterior) and plantarflexors (gastrocnemius, soleus), and toe extensors (extensor hallucis longus). The total possible score for the full motor examination was 130.
(§3) Sensory abilities were graded on an analogous 0-4 point scale:
0--absent (no ability to detect the stimulus)
1--trace (patchy or variable ability to detect stimulus with little or no resolution of quality)
2--light (able to detect stimulus but much weaker, or of altered quality relative to equivalent unaffected areas) […]

[2] = system: spinal cord injured patients; assay: Vibration sensation score; format: in vivo, human
Method: as §1, §2, §3
The sensory modalities tested were light touch, pinprick, vibration, joint position, and temperature. The dermatomes tested for touch and pinprick were: C5,6,7,8, T1,T7-9,L1,2,3,4,5, and S1, giving a total possible score of 96 for each modality. Vibration sensation was usually tested bilaterally, at the shoulder, elbow, knee and ankle. Temperature sensation was tested, with the subject's eyes closed, by blowing cool air from a distance or breathing warm air in close proximity on the dorsal surface of the hands and feet. Joint position sense was examined with the subject's eyes closed, by imposed flexion and extension movements of the thumb and great toe. The total possible score for the full sensory examination was 256 points.
Though the examiners assigned half point scores in cases where they felt that subjects fell between score categories, any half point differences between pre- and post-infusion scores have been ignored in this analysis. Also omitted from this tabulation are the scores for vibration sensation, which are shown separately in Table 3. […]

[3] = system: animals with experimental or naturally occurring spinal cord injuries; settings: intravenous injection; cited from earlier work
[4] = system: surviving myelinated axons of spinal cord; settings: single nerve fibers; cited from earlier work
[5] = system: spinal cord injury patients; settings: cited from earlier work
[6] = system: synaptic transmission in the spinal cord; settings: relatively high concentrations; cited from earlier work
[7] = system: multiple sclerosis patients; settings: cited from earlier work
[8] = 2 hours after infusion of 4-AP, total of 8 subjects
[9] = 2 hours after infusion of 4-AP, total of 8 subjects, without vibration
[10] = 2 hours after infusion of 4-AP, total possible 130, one line per subject: b160 RB, b161 SC, HT, LJ, EB, GCh, AW, GCu
[11] = 2 hours after infusion of 4-AP, total possible 224, without vibration, one line per subject: b160 RB, b161 SC, HT, LJ, EB, GCh, AW, GCu
[12] = 2 hours after infusion of 4-AP, total of subjects
[13] = 2 hours after infusion of 4-AP, total possible 32, one line per subject: b182 RB, SC, HT, LJ, EB, b187 GCh, AW, b189 GCu

Compound: Nc1ccncc1 [4-AP, 4-aminopyridine]
- change in motor score, +ve, TOTAL [1, 8]: +26
- change in motor score, -ve, TOTAL [1, 8]: 0
- change in sensory score, +ve, TOTAL [1, 9]: +66
- change in sensory score, -ve, TOTAL [1, 9]: -7
- change in motor score, +ve [1, 10]: 0 and +4 and +16 and +2
- change in motor score, -ve [1, 10]: 0
- change in sensory score, +ve [1, 11]: 0 and +3 and +2 and +14 and +27 and +20
- change in sensory score, -ve [1, 11]: 0 and -5 and -2
- initial pinprick response in most distal dermatomes ([1]; 2 hours after infusion, second trial): initial depression of response in the most distal dermatomes
- pinprick sensation and joint position sense below the lesion ([1]; 24 hours, not seen at 2 hours, subject three): striking improvement of pinprick sensation and joint position sense below the lesion
- persistence of motor score increase ([1]; 24 hours, second trial, subject four): increases in score were sustained at 24 hours after infusion
- persistence of pinprick improvement ([1]; 48 hours post infusion, second trial, EB and GCh): still detectable at 48 hour post infusion in both cases
- reversal of sensory effect ([1]; 72 hours, subject GCh, second trial): returned completely to pre-infusion status; also recorded: entirely reversed by 72 hours
- time of maximal motor improvement ([1]; after infusion, second trial, subject four (FIG. 5)): 2 h
- time of maximal improvement in sensory (pinprick) score ([1]; after infusion, second trial, subjects): 24 h
- motor performance, greater endurance / reversal of leg muscle rigidity effects ([1]; second administration, leg muscles, hip and knee): reduction in the spasticity of leg muscles led at times to a reduction of motor power
- pinprick sensation below level of injury ([1]; second, unblinded administration, EB and GCh): remarkable increase in the response to pinprick stimulation below the level of injury
- change in total score for vibration sensation, +ve, TOTAL [2, 12]: +1
- change in total score for vibration sensation, -ve, TOTAL [2, 12]: -12
- change in total score for vibration sensation, +ve [2, 13]: 0 and +1
- change in total score for vibration sensation, -ve [2, 13]: 0 and -7 and -4 and -2
- vibration sensation score (in words) ([2]; after 4-AP infusion, three subjects): scores in three subjects decreased substantially
- electrophysiological and behavioral function [3]: significant improvements in electrophysiological (Blight and Gruner, 1987) and behavioral function
- overcoming of conduction block [4]: Some of this conduction block can be overcome
- serious side effects ([5]; human, in vivo): lack of serious side effects
- therapeutic benefit ([5]; mostly electrophysiological level): modest therapeutic benefit
- synaptic transmission in the spinal cord [6]: enhance synaptic transmission in the spinal cord
- motor strength and sensory deficits [7]: selective increases in motor strength and recovery of sensory deficits
